system: miR-21; assay: High throughput primary miR-21 FLuc reporter assay (concentration-response); format: cell-based, human; conditions: HeLa Luc-miR-21 reporter, 48-hour incubation; read-out: AC50
Experimental: Primary miR-21 Assay. The primary miR-21 FLuc reporter assay is carried out with HeLa cells expressing the Luc-miR-21 reporter using a 48-hour incubation time. Active compounds that increase the luciferase response are identified based upon inhibition of miR-21.
SAR. The concentration-response data for the entire high throughput screen is plotted and modeled by a four parameter logistic fit and SAR analysis is performed according to conventional approaches (Iglese, et al. (2006) Proc. Natl. Acad. Sci. USA […]:11473-8). In brief, Class 1.1 and 1.2 are full curves containing upper and lower asymptotes with efficacy ≧80% and <80%, respectively. Class 2.1 and 2.2 are incomplete curves having only one asymptote with efficacy ≧80% and <80%, respectively. Class 3 curves show activity at only the highest concentration or are poorly fit. […] For SAR analysis, compounds associated with Class 1 and 2.1 curves are clustered using LEADSCOPE® fingerprints. […] Compounds sharing a common scaffold form a series. Candidate series and singletons are chosen for follow up studies. For each lead or series, an appropriate library design method (e.g., point substitution library or matrix library) is selected. Typically, precursors are synthesized and a library of 15-25 compounds is produced for analysis in the above-described assays.

Row | SMILES | AC50 [µM]
1 | COC(=O)/C(=C/c1cccc([N+](=O)[O-])c1)NC(=O)c1ccc(OC)cc1 [Compound 89] | 5.21

same assay, conditions: Homo sapiens, HeLa, 48 h, HeLa Luc-miR-21 reporter, 48-hour incubation; read-out: AC50

Row | SMILES | AC50 [µM]
2 | CC(C)(C)C1CCc2nc(NC(=O)Cc3cn4ccsc4n3)sc2C1 (stereo not shown) [Compound 95] | 8.26
3 | COc1ccc(C(Nc2ccccn2)c2c(NC(=O)c3ccco3)sc(C)c2C)cc1OC (stereo not shown) [Compound 115] | 16.5
4 | Cc1ccc(-c2nnc(SCC(=O)Nc3nccs3)n2N)cc1 [Compound 159] | 16.5
5 | CCn1nnc2cc(C(=O)Nc3ccc(OC)cc3)ccc21 [Compound 93] | 11.7
6 | Cc1ccc(-c2nc(NCc3ccco3)n(S(C)(=O)=O)n2)cc1 [Compound 37] | 14.7
7 | Nc1c(-c2nc(-c3cccs3)no2)nnn1-c1cccc(Cl)c1 [Compound 25] | 4.14
8 | COc1ccc(NC(=O)C/C(C)=N/NC(=O)c2ccco2)c([N+](=O)[O-])c1 [Compound 237] | 20.8
9 | CSc1nsc(SCC(=O)Nc2ccc(F)cc2F)n1 [Compound 131] | 4.14
10 | COc1ccc(CNc2nc(-c3ccco3)nn2C(=O)CC(C)C)cc1 [Compound 32] | 5.85
11 | CCCC(=O)Nc1ccc(NC(=O)C23CC4CC(CC(C4)C2)C3)cn1 [Compound 99] | 18.5
12 | Nc1nc(CSCc2ccccc2)nc(N2CCOCC2)n1 [Compound 62] | 14.7
13 | CCOc1ccccc1-n1nnc(-c2nc(-c3ccccc3)no2)c1N [Compound 23] | 3.69
14 | Cc1cc(C(F)(F)F)c(C#N)c(SCC(=O)Nc2nc3cc(Br)ccc3s2)n1 [Compound 129] | 3.69
15 | O=C(c1ccc([N+](=O)[O-])cc1)n1nc(-c2ccccc2)nc1NCc1ccccc1 [Compound 34] | 8.26
16 | CCCNc1ncnc2c1cnn2-c1ccc(OC)cc1 [Compound 246] | 0.29
17 | Nc1c(-c2nc(-c3cccs3)no2)nnn1-c1cccc(F)c1 [Compound 10] | 0.21
18 | Cn1nnc2cc(C(=O)Nc3ccccc3F)ccc21 [Compound 108] | 14.7
19 | O=C(Nc1ccc(-c2nc3ccccc3[nH]2)cc1)c1ccc2c(c1)OCO2 [Compound 91] | 6.56
20 | COc1cccc(C(=O)NCCC2=CCCCC2)c1OC [Compound 90] | 5.85
21 | O=C(N/N=C/c1ccc(OC(=O)c2cccs2)cc1)c1cccc(F)c1 [Compound 235] | 18.5

Row | SMILES | AC50 [µM]
22 | O=C(Cc1cccs1)N/N=C/C=C/c1ccccc1[N+](=O)[O-] [Compound 204] | 6.56
23 | COc1ccc(CNc2nc(-c3ccccc3)nn2C(=O)c2ccc([N+](=O)[O-])cc2)cc1 [Compound 38] | 14.7
24 | CCCNc1nc(C)nc2c1cnn2CCc1ccccc1 [Compound 248] | 14.7
25 | COC(=O)/C(=C/c1cccc([N+](=O)[O-])c1)NC(=O)c1ccc(OC)cc1 [Compound 119] | 10.4
26 | Brc1ccc(CSc2nnc3ccccn23)cc1 [Compound 51] | 16.5
27 | Nc1cc(N)nc(SCC(=O)Nc2ccc(Br)cc2Cl)n1 [Compound 113] | 11.7
28 | COc1ccc(NC(=O)c2ncn(-c3ccccc3)n2)cc1Cl [Compound 101] | 9.27
29 | COCC1CCN(C(=O)c2oc3c(F)cccc3c2C)C1 (stereo not shown) [Compound 76] | 13.1
30 | O=C(Nc1ccc2nn(-c3ccccc3)nc2c1)c1ccc(-c2cccc(Cl)c2)o1 [Compound 109] | 18.5
31 | Cc1ccccc1Nc1nc(N)nc(CCC(=O)c2ccc(O)cc2)n1 [Compound 69] | 18.5
32 | O=C(CSc1nnc(-c2ccc(O)cc2)o1)Nc1ccccc1Br [Compound 123] | 1.31
33 | CC(C)C(=O)Nc1nc2c(s1)CC(C(C)(C)C)CC2 (stereo not shown) [Compound 94] | 2.07
34 | O=C(N/N=C1\CC2C=CCC12)c1ccco1 (stereo not shown) [Compound 199] | 5.21
35 | COCC(=O)Nc1ccc(C(=O)Nc2ccccc2Cl)cc1 [Compound 178] | 11.7
36 | O=C(CSc1ccccc1)NCCc1ccccc1 [Compound 152] | 14.7
37 | CSc1nsc(SCC(=O)N2CCCCC2)n1 [Compound 150] | 13.1
38 | Cc1ccc(-c2nc3cnccn3c2Nc2ccccc2)o1 [Compound 243] | 16.5
39 | O=C(COc1ccccc1F)Nc1ccc(-c2nc3ccccc3s2)cc1 [Compound 166] | 1.47
40 | COc1ccc(NC(=O)c2nnn(CC(=O)Nc3cccc(C)c3C)c2N)c(OC)c1 [Compound 102] | 13.1
41 | Cc1ccccc1OCCSc1nnc(C)n1-c1ccccc1 [Compound 50] | 14.7

Row | SMILES | AC50 [µM]
42 | COc1ccc(NC(=O)c2ccccc2NC(=O)c2ccccc2C(=O)O)c(OC)c1 [Compound 104] | 18.5
43 | Cc1cccc(-n2nnc(-c3nc(-c4cccs4)no3)c2N)c1C [Compound 9] | 0.09
44 | CCC(=O)Oc1ccc(NC(=O)CSCc2ccccc2)cc1 [Compound 146] | 11.7
45 | Nc1c(C(=O)Nc2cc(F)ccc2F)sc2nc(-c3cccc(O)c3)ccc12 [Compound 84] | 11.7
46 | COCC(=O)n1nc(-c2ccco2)nc1NCc1ccccc1Cl [Compound 39] | 16.5
47 | Cc1cccc(-c2nnc(SCC(=O)Nc3ccc(C)c(C)c3)o2)c1 [Compound 134] | 5.85
48 | COc1nc(Nc2cccc(C(F)(F)F)c2)nc(OC)n1 [Compound 63] | 14.7
49 | Nc1c(C(=O)Nc2ccc(S(=O)(=O)N3CCCC3)cc2)sc2nc3cc4c(cc3cc12)CCC4 [Compound 85] | 13.1
50 | COc1cc(-c2nc3cnccn3c2Nc2ccc(C(C)C)cc2)ccc1O [Compound 241] | 3.29
51 | COc1ccc(NC(=O)CSc2nnc(-c3cccs3)o2)cc1 [Compound 137] | 6.56
52 | Cc1ccc2c(C)c(C(=O)N(C)C(C)c3ccncn3)oc2c1C (stereo not shown) [Compound 77] | 13.1
53 | COc1ccccc1C(=O)n1nc(-c2ccco2)nc1NCc1ccc(Cl)cc1 [Compound 35] | 14.7
54 | Cc1cc(C)c2c(N)c(C(=O)Nc3ccccc3F)sc2n1 [Compound 81] | 1.47
55 | O=C(N/N=C/c1cccc([N+](=O)[O-])c1)c1nc(O)c2ccccc2n1 [Compound 220] | 11.7
56 | COc1ccccc1Nc1nc(N)nc(CSc2nc(C)cc(C)n2)n1 [Compound 70] | 18.5
57 | COc1ccc(-c2nn3c(C4CCCCC4)nnc3s2)cc1OC [Compound 56] | 3.29
58 | CCCCC12CN3CCN(CC(C3)/C1=N/NC(=O)c1ccccc1N)C2 [Compound 214] | 9.27
59 | COc1ccc(OCC(=O)Nc2ccc(-c3nc4cc(C)c(C)cc4o3)cc2)cc1 [Compound 165] | 0.13
60 | COc1cccc(NC(=O)CSc2nnc(-c3cccs3)o2)c1 [Compound 139] | 6.56
61 | CCc1cccc(-n2nnc(-c3nc(-c4ccccc4Cl)no3)c2N)c1 [Compound 26] | 16.5

same assay, conditions: Homo sapiens, Table 12 singletons; read-out: AC50

Row | SMILES | AC50 [µM]
62 | CC(C)(C)NS(=O)(=O)c1cccc(S(=O)(=O)c2cccc(S(=O)(=O)NC(C)(C)C)c2)c1 [Compound 253] | 1.65
63 | O=C(CCS(=O)(=O)c1ccccc1)Nc1ccc(-c2nc3ccccc3s2)cc1 [Compound 249] | 0.26
64 | O=C(c1ccc(COCC(F)(F)F)cc1)N1CCN(c2ccccn2)CC1 [Compound 298] | 14.7
65 | CCn1c(=O)c(C(=O)Nc2ccccc2S(N)(=O)=O)c(O)c2ccccc21 [Compound 309] | 14.7
66 | NC1=NC(=O)/C(=C/c2cn(Cc3ccccc3)c3ccccc23)S1 [Compound 284] | 9.27
67 | O=S(=O)(c1cccc2nsnc12)N1CCc2ccccc21 [Compound 269] | 4.65
68 | CSc1c(C#N)c(N)c(C#N)c2c1COC(C)(C)C2 [Compound 332] | 18.5
69 | CCCNC(=O)OCc1cccnc1Sc1ccc(C)cc1 [Compound 319] | 16.5
70 | Nc1ccc2c(c1)Cc1cc([N+](=O)[O-])ccc1-2 [Compound 299] | 14.7
71 | CCC(=O)Oc1ccc(NC(=O)CSCc2ccccc2)cc1 [Compound 288] | 11.7
72 | COc1ccc(/C=C/C(=O)NC2CCCCCC2)cc1S(=O)(=O)N1CCOCC1 [Compound 287] | 10.4
73 | Fc1cccc(/C=N/N=C(\S)Nc2ccccc2Cl)c1 [Compound 268] | 4.65
74 | Cc1nc2ccc(/N=C(\S)N3CCC(C)CC3)cc2nc1C [Compound 296] | 13.1
75 | Nc1cccc(CCc2nc3ccccc3[nH]2)c1 [Compound 336] | 18.5
76 | NC(=O)COC(=O)c1ccc2noc(-c3ccccc3)c2c1 [Compound 274] | 6.56
77 | CCOC(=O)N1CCN(C(=O)CSCc2ccccc2Cl)CC1 [Compound 329] | 16.5
78 | CCOC(=O)Nc1ccc2c(c1)ncn2C1CCCCC1 [Compound 333] | 18.5
79 | Cn1c(=N)n(CC(=O)C(C)(C)C)c2ccccc21 [Compound 338] | 18.5
80 | CNc1cc([N+](=O)[O-])ccc1/N=C/C=C(\O)c1cccs1 [Compound 290] | 11.7
81 | CC(=O)O[C@H]1C[C@@]2(C)[C@@H](C[C@@H](O)[C@H]3[C@@]4(C)CC[C@@H](O)[C@@H](C)C4CC[C@@]32C)/C1=C(\CCC=C(C)C)C(=O)O (stereo partly shown) [Compound 312] | 14.7
82 | O=C(Nc1ccccc1)c1cc2n(n1)C(C(F)(F)F)CC(C1CC1)N2 (stereo not shown) [Compound 272] | 6.56

same assay, conditions: Table 12 singletons; concentration-response curve class

Row | SMILES | Curve Class
83 | Cc1cccc2c1-c1sc(C(=O)Nc3cccnc3)cc1CO2 [Compound 323, CC1═C/C═C\C2═C\1\C3═C(CO2)\C═C(/S3)C(═O)NC4═C/C═C\N═C\4] | −2.2

same assay, conditions: Table 12 singletons; negative values as printed

Row | SMILES | Efficacy
84 | Cc1cccc2c1-c1sc(C(=O)Nc3cccnc3)cc1CO2 [Compound 323, CC1═C/C═C\C2═C\1\C3═C(CO2)\C═C(/S3)C(═O)NC4═C/C═C\N═C\4] | −70.23

same assay, conditions: Table 12 singletons; read-out: AC50

Row | SMILES | AC50 [µM]
85 | Cc1cccc2c1-c1sc(C(=O)Nc3cccnc3)cc1CO2 [Compound 323, CC1═C/C═C\C2═C\1\C3═C(CO2)\C═C(/S3)C(═O)NC4═C/C═C\N═C\4] | 16.5

From patent US20120010177A1, “MicroRNA Modulators and Method for Identifying And Using The Same” (The Wistar Institute / North Carolina State University, priority 2008, published 2012)
